Here are results for six molecules from ChEMBL document CHEMBL5303573, “Mapping human microbiome drug metabolism by gut bacteria and their genes” (Nature, 2019).

Data set [1] can be described thus: The drug is tested on Alistipes indistinctus strain: DSM22520 for biotransformation. The drug concentrations were measured before and after a 12-h incubation by liquid-chromatography-coupled mass spectrometry (LC–MS). The note with it: 2 µM.
Data set [2] can be described thus: The drug is tested on Bacteroides finegoldii strain: DSM17565 for biotransformation. The drug concentrations were measured before and after a 12-h incubation by liquid-chromatography-coupled mass spectrometry (LC–MS). The note with it: 2 µM.
The conditions of data set [3]: enterocloster bolteae, 12 h, 2 µM.
Description: The drug is tested on Clostridium bolteae strain: ATCCBAA-613 for biotransformation. The drug concentrations were measured before and after a 12-h incubation by liquid-chromatography-coupled mass spectrometry (LC–MS)
Data set [4] can be described thus: The drug is tested on Clostridium ramosum strain: DSM1402 for biotransformation. The drug concentrations were measured before and after a 12-h incubation by liquid-chromatography-coupled mass spectrometry (LC–MS). The note with it: thomasclavelia ramosa, 2 µM.
A short description of data set [5]: The drug is tested on Blautia luti strain: DSM14534 for biotransformation. The drug concentrations were measured before and after a 12-h incubation by liquid-chromatography-coupled mass spectrometry (LC–MS). Also on record: dose 2 uM, timepoint 0 vs 12 hours. The note with it: 2 µM. In kind it is ADME.
Data set [6] in a line: The drug is tested on Bacteroides dorei strain: DSM17855 for biotransformation. The drug concentrations were measured before and after a 12-h incubation by liquid-chromatography-coupled mass spectrometry (LC–MS). The note with it: phocaeicola dorei, 2 µM.
Data set [7] is described as follows: The drug is tested on Collinsella aerofaciens strain: ATCC25986 for biotransformation. The drug concentrations were measured before and after a 12-h incubation by liquid-chromatography-coupled mass spectrometry (LC–MS). As to conditions: 2 µM.
Data set [8] in a line: The drug is tested on Ruminococcus torques strain: ATCC27756 for biotransformation. The drug concentrations were measured before and after a 12-h incubation by liquid-chromatography-coupled mass spectrometry (LC–MS). As to conditions: 2 µM. In kind it is ADME. Set-up: dose 2 uM, timepoint 0 vs 12 hours.
Data set [9] can be described thus: The drug is tested on Anaerococcus hydrogenalis strain: DSM7454 for biotransformation. The drug concentrations were measured before and after a 12-h incubation by liquid-chromatography-coupled mass spectrometry (LC–MS). As to conditions: 2 µM.
Data set [10] can be described thus: The drug is tested on Enterobacter cancerogenus strain: ATCC35316 for biotransformation. The drug concentrations were measured before and after a 12-h incubation by liquid-chromatography-coupled mass spectrometry (LC–MS). The note with it: 2 µM.
Data set [11] in a line: The drug is tested on Bacteroides caccae strain: ATCC43185 for biotransformation. The drug concentrations were measured before and after a 12-h incubation by liquid-chromatography-coupled mass spectrometry (LC–MS). The note with it: 2 µM.
The nature of data set [12]: The drug is tested on Edwardsiella tarda strain: ATCC23685 for biotransformation. The drug concentrations were measured before and after a 12-h incubation by liquid-chromatography-coupled mass spectrometry (LC–MS). The note with it: 2 µM.
Data set [13] is described as follows: The drug is tested on Bifidobacterium ruminantium strain: fecal isolate for biotransformation. The drug concentrations were measured before and after a 12-h incubation by liquid-chromatography-coupled mass spectrometry (LC–MS). The note with it: 2 µM.
For data set [14] the following is noted: anaerostipes sp., 12 h, 2 µM.
Description: The drug is tested on Anaerostipes sp. strain: fecal isolate for biotransformation. The drug concentrations were measured before and after a 12-h incubation by liquid-chromatography-coupled mass spectrometry (LC–MS)
The nature of data set [15]: The drug is tested on Eubacterium rectale strain: ATCC33656 for biotransformation. The drug concentrations were measured before and after a 12-h incubation by liquid-chromatography-coupled mass spectrometry (LC–MS). As to conditions: agathobacter rectalis, 2 µM.
The nature of data set [16]: The drug is tested on Coprococcus comes strain: ATCC27758 for biotransformation. The drug concentrations were measured before and after a 12-h incubation by liquid-chromatography-coupled mass spectrometry (LC–MS). In kind it is ADME. Also on record: dose 2 uM, timepoint 0 vs 12 hours. The note with it: 2 µM.
Data set [17] in a line: The drug is tested on Bacteroides sp. WH2 strain: WH2 for biotransformation. The drug concentrations were measured before and after a 12-h incubation by liquid-chromatography-coupled mass spectrometry (LC–MS). The note with it: bacteroides sp. wh2, 12 h, 2 µM.
Data set [18] can be described thus: The drug is tested on Ruminococcus gnavus strain: ATCC29149 for biotransformation. The drug concentrations were measured before and after a 12-h incubation by liquid-chromatography-coupled mass spectrometry (LC–MS). As to conditions: mediterraneibacter gnavus, 2 µM.
The nature of data set [19]: The drug is tested on Bacteroides fragilis strain: HMW610 for biotransformation. The drug concentrations were measured before and after a 12-h incubation by liquid-chromatography-coupled mass spectrometry (LC–MS). The note with it: 2 µM.
Data set [20] can be described thus: The drug is tested on Bacteroides fragilis strain: HMW615 for biotransformation. The drug concentrations were measured before and after a 12-h incubation by liquid-chromatography-coupled mass spectrometry (LC–MS). The note with it: 2 µM.

Consider `COC1=C(OC)C(=O)C(CCCCCCCCCCO)=C(C)C1=O` [IDEBENONE], for which the “Bacterial Biotransformation” value is reported as “Compound metabolized” in data set [1]; “Compound NOT metabolized” in [2]; “Compound metabolized” in data set [3]; “Compound NOT metabolized” in data set [4]; “Compound metabolized” in [5]; “Compound NOT metabolized” in data set [6]. The “Bacterial Biotransformation” value in [7] is given as “Compound NOT metabolized”; in data set [8] it was “Compound NOT metabolized”; in data set [9] it was “Compound NOT metabolized”; in data set [10] it was “Compound NOT metabolized”; in [11] it was “Compound metabolized”; in data set [12] it was “Compound NOT metabolized”. Further, the “Bacterial Biotransformation” value in data set [13] is “Compound NOT metabolized”; in data set [14], “Compound metabolized”; in [15], “Compound NOT metabolized”; in data set [16] it was “Compound NOT metabolized”; in data set [17], “Compound NOT metabolized”; in data set [18] it was “Compound NOT metabolized”. The “Bacterial Biotransformation” value in [19] is “Compound metabolized”.

Consider `NC(=O)N1c2ccccc2CC(=O)c2ccccc21` [OXCARBAZEPINE], for which the “Bacterial Biotransformation” value is recorded as “Compound metabolized” in data set [1]; “Compound NOT metabolized” in data set [2]; “Compound NOT metabolized” in data set [3]; “Compound metabolized” in data set [4]; “Compound metabolized” in data set [5]; “Compound metabolized” in [6]. In addition, the “Bacterial Biotransformation” value in [7] is listed as “Compound NOT metabolized”; in [8], “Compound metabolized”; in data set [9] it was “Compound NOT metabolized”; in data set [10], “Compound metabolized”; in [11], “Compound NOT metabolized”; in [12] it was “Compound metabolized”. Moreover, the “Bacterial Biotransformation” value in data set [13] is “Compound metabolized”; in data set [14], “Compound NOT metabolized”; in data set [15] it was “Compound metabolized”; in data set [16] it was “Compound NOT metabolized”; in data set [17] it was “Compound NOT metabolized”; in data set [18], “Compound NOT metabolized”. Besides, the “Bacterial Biotransformation” value in [19] was “Compound NOT metabolized”.

Regarding `CC1OC(OC2C(O)CC(OC3C(O)CC(OC4CCC5(C)C(CCC6C5CCC5(C)C(C7=CC(=O)OC7)CCC65O)C4)OC3C)OC2C)CC(O)C1O` (centres undefined), the “Bacterial Biotransformation” value in [1] is “Compound NOT metabolized”; in data set [2] it was “Compound NOT metabolized”; in data set [3], “Compound NOT metabolized”; in data set [4], “Compound NOT metabolized”; in [5] it was “Compound NOT metabolized”; in [6], “Compound metabolized”. The “Bacterial Biotransformation” value in data set [7], in data set [8], in data set [9], in data set [10], in data set [11] and in data set [12] was “Compound NOT metabolized” each time. The “Bacterial Biotransformation” value in data set [14] was “Compound NOT metabolized”; in data set [15], “Compound NOT metabolized”; in data set [16], “Compound NOT metabolized”; in data set [17], “Compound NOT metabolized”; in [20], “Compound metabolized”; in data set [18], “Compound NOT metabolized”. Further, the “Bacterial Biotransformation” value in data set [19] was “Compound metabolized”.

Turning to `O=C1NCC2(CCN(CCc3ccccc3)CC2)O1` [FENSPIRIDE], the “Bacterial Biotransformation” value in data set [1] is “Compound NOT metabolized”; in data set [2] it was “Compound NOT metabolized”; in data set [3], “Compound NOT metabolized”; in [4], “Compound NOT metabolized”; in [5], “Compound NOT metabolized”; in data set [6], “Compound metabolized”. In addition, the “Bacterial Biotransformation” value in [7], in data set [8], in data set [9], in data set [10], in [11] and in data set [12] was “Compound NOT metabolized” throughout. Moreover, the “Bacterial Biotransformation” value is “Compound NOT metabolized” in [14]; “Compound NOT metabolized” in data set [15]; “Compound NOT metabolized” in data set [16]; “Compound NOT metabolized” in [17]; “Compound metabolized” in data set [20]; “Compound NOT metabolized” in data set [18]. Also, the “Bacterial Biotransformation” value in data set [19] is listed as “Compound metabolized”.

As to `COc1cc2nc(N3CCN(C(=O)C4COc5ccccc5O4)CC3)nc(N)c2cc1OC.CS(=O)(=O)O` (centres undefined) [DOXAZOSIN MESYLATE], the “Bacterial Biotransformation” value in [1] is “Compound metabolized”; in data set [2] it was “Compound NOT metabolized”; in data set [4], “Compound NOT metabolized”; in data set [5], “Compound NOT metabolized”; in [6] it was “Compound metabolized”; in data set [7] it was “Compound NOT metabolized”. For the same molecule, the “Bacterial Biotransformation” value in [8], in data set [9], in data set [10], in data set [11], in data set [12] and in [16] was “Compound NOT metabolized” throughout. The “Bacterial Biotransformation” value in [17], in data set [20], in data set [18] and in data set [19] was “Compound NOT metabolized” in each case.

In the case of `C[C@H]1O[C@@H](O[C@H]2[C@@H](O)C[C@H](O[C@H]3[C@@H](O)C[C@H](O[C@H]4CC[C@@]5(C)[C@H](CC[C@@H]6[C@@H]5C[C@@H](O)[C@]5(C)[C@@H](C7=CC(=O)OC7)CC[C@]65O)C4)O[C@@H]3C)O[C@@H]2C)C[C@H](O)[C@@H]1O` [DIGOXIN], the “Bacterial Biotransformation” value is reported as “Compound NOT metabolized” in [1]; “Compound NOT metabolized” in data set [3]; “Compound NOT metabolized” in data set [4]; “Compound NOT metabolized” in [5]; “Compound metabolized” in data set [6]; “Compound NOT metabolized” in data set [7]. Moreover, the “Bacterial Biotransformation” value in data set [8], in data set [9], in [10], in data set [11], in [12] and in data set [14] was “Compound NOT metabolized” throughout. For the same molecule, the “Bacterial Biotransformation” value in data set [16] is “Compound NOT metabolized”; in [17], “Compound NOT metabolized”; in [20], “Compound metabolized”; in [18], “Compound NOT metabolized”; in data set [19], “Compound metabolized”.
